Data as given in patent US20240228488A1 (TAKEDA PHARMACEUTICAL COMPANY LIMITED, priority 2021, published 2024).

Key:
[1] = biological target: T1, plasma kallikrein (Homo sapiens, UniProt P03952); assay: Neat human plasma assay, FXIIa contact pathway-activated, PFR-AMC substrate; format: biochemical; conditions: citrated human plasma 78% final, 10 nM human FXIIa, 100 μM PFR-AMC; read-out: Human Plasma Assay: IC90
T1 construct: from tissue
In short: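 Compound inhibition of plasma kallikrein measured as PFR-AMC (100 μM) cleavage rate over 5 min at room temperature in 78% citrated human plasma activated with 10 nM FXIIa (Tris pH 7.5 buffer). IC50/IC90 from 4-parameter fit of rate versus inhibitor concentration.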

[2] = biological target: human activated kallikrein enzyme (Homo sapiens, UniProt P03952); assay: Plasma kallikrein inhibition, fluorogenic PFR-AMC substrate, 500 pM activated kallikrein format; format: biochemical; conditions: 500 pM activated kallikrein, 300 uM PFR-AMC, 30 min preincubation, 10 min reaction; read-out: Primary Dose Response Assay: Average EC50
Sequence of human activated kallikrein enzyme (P03952 391-638 limits assumed): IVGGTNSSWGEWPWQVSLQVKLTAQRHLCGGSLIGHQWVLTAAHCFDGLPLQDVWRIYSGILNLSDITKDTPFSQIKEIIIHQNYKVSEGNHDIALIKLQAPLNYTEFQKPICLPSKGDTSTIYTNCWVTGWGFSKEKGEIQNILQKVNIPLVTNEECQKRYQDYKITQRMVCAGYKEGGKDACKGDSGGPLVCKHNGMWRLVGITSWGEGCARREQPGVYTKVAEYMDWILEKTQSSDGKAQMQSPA
Sequence of human activated kallikrein enzyme (P03952 20-390 partner limits assumed): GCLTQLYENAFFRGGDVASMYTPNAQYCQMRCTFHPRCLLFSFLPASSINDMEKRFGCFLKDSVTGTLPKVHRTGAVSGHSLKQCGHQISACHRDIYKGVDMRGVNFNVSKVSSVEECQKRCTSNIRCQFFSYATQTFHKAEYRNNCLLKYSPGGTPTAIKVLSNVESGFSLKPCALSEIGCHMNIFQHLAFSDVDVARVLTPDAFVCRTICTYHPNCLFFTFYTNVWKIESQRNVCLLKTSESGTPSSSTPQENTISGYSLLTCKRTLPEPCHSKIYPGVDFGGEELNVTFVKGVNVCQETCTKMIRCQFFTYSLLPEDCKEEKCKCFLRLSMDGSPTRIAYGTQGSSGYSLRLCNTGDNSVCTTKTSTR
In short: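 Fluorescence (ex 380/em 460 nm) is read after 10 min of 300 uM PFR-AMC turnover by 500 pM enzyme at RT. Compounds sit with enzyme for 30 min beforehand. Buffer is Tris (pH 7.5) with EDTA, NaCl, PEG-400 and Triton X-100; EC50 values are banded.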

T1 sequence (P03952 391-638 limits assumed): as the sequence (P03952 391-638 limits assumed) above
T1 sequence (P03952 20-390 partner limits assumed): as the sequence (P03952 20-390 partner limits assumed) above

Row | SMILES | IC90 [1] [nM] | EC50 [2] [nM]
1 | Cc1ccnc([C@H]2C[C@@H]2C(=O)Nc2cc(OCc3cn4cc(C5CC5)cc(S(C)(=O)=O)c4n3)cnn2)n1 [Example 561, (1S,2S)-N-(5-((6-cyclopropyl-8-(methylsulfonyl)imidazo[1,2-a]pyridin-2-yl)methoxy)pyridazin-3-yl)-2-(4-methylpyrimidin-2-yl)cyclopropane-1-carboxamide] | < 400 | < 1
2 | O=C(Nc1cc(NCc2cn3cc(C4CC4)cc(NC4COC4)c3n2)ccn1)[C@H]1C[C@@H]1c1cccc(Cl)c1 [Example I-26, (1S,2S)-2-(3-chlorophenyl)-N-(4-(((6-cyclopropyl-8-(oxetan-3-ylamino)imidazo[1,2-a]pyridin-2-yl)methyl)amino)pyridin-2-yl)cyclopropane-1-carboxamide] | 1500 to 10000 | < 1
3 | COc1ccnc([C@H]2C[C@@H]2C(=O)Nc2cc(N[C@H](C)c3cn4cc(C5CC5)cc(N5CC(=O)N(C)C5=O)c4n3)ncn2)n1 (relative stereo) [Example 529, rac-(1S*,2S*)-N-(6-(((R)-1-(6-cyclopropyl-8-(3-methyl-2,4-dioxoimidazolidin-1-yl)imidazo[1,2-a]pyridin-2-yl)ethyl)amino)pyrimidin-4-yl)-2-(4-methoxypyrimidin-2-yl)cyclopropane-1-carboxamide] | 400 to 1500 | < 1
4 | COC(=O)CN1C(=O)CN(c2cc(C3CC3)cn3cc(COc4cc(NC(=O)[C@H]5C[C@@H]5c5nccc(C)n5)nc(C)n4)nc23)C1=O [Example 550, methyl 2-(3-(6-cyclopropyl-2-(((2-methyl-6-((1S,2S)-2-(4-methylpyrimidin-2-yl)cyclopropane-1-carboxamido)pyrimidin-4-yl)oxy)methyl)imidazo[1,2-a]pyridin-8-yl)-2,5-dioxoimidazolidin-1-yl)acetate] | 400 to 1500 | < 1
5 | Cc1ccnc([C@H]2C[C@@H]2C(=O)Nc2cc(NCc3cn4cc(C5CC5)cc(N5CC(=O)N(C)C5=O)c4n3)nc(C3(F)COC3)n2)n1 (racemic) [Example 114, rac-(1S*,2S*)—N-(6-(((6-cyclopropyl-8-(3-methyl-2,4-dioxoimidazolidin-1-yl)imidazo[1,2-a]pyridin-2-yl)methyl)amino)-2-(3-fluorooxetan-3-yl)pyrimidin-4-yl)-2-(4-methylpyrimidin-2-yl)cyclopropane-1-carboxamide] | 400 to 1500 | 1 to 10
6 | CN1CCC(O)(c2cc(C3CC3)cn3cc(CNc4ccnc(NC(=O)[C@H]5C[C@@H]5c5cccc(Cl)c5)c4)nc23)CC1 [Example 488, (1S,2S)-2-(3-chlorophenyl)-N-(4-(((6-cyclopropyl-8-(4-hydroxy-1-methylpiperidin-4-yl)imidazo[1,2-a]pyridin-2-yl)methyl)amino)pyridin-2-yl)cyclopropane-1-carboxamide] | 400 to 1500 | < 1
7 | Cc1cc(NCc2cn3cc(C4CC4)ccc3n2)cc(NC(=O)[C@H]2C[C@@H]2c2cc(Cl)ccc2C#N)n1 (racemic) [Example 342, rac-(1S*,2S*)-2-(5-chloro-2-cyanophenyl)-N-(4-(((6-cyclopropylimidazo[1,2-a]pyridin-2-yl)methyl)amino)-6-methylpyridin-2-yl)cyclopropane-1-carboxamide] | 1500 to 10000 | < 1
8 | Cc1ccnc([C@H]2C[C@@H]2C(=O)Nc2cc(N[C@H](C)c3cn4cc(C5CC5)cc(N5C[C@@H]6C[C@@H]6C5=O)c4n3)ncn2)n1 (racemic) [Example 443, (1S,2S)—N-(6-(((R)-1-(6-cyclopropyl-8-((1R*,5S*)-2-oxo-3-azabicyclo[3.1.0]hexan-3-yl)imidazo[1,2-a]pyridin-2-yl)ethyl)amino)pyrimidin-4-yl)-2-(4-methylpyrimidin-2-yl)cyclopropane-1-carboxamide] | < 400 | < 1
9 | Cc1ccnc([C@H]2C[C@@H]2C(=O)Nc2ncc(C(F)(F)F)c(NCc3cn4cc(C5CC5)cc(N5CC(=O)N(C)C5=O)c4n3)n2)n1 (racemic) [Example 518, rac-(1S*,2S*)-N-(4-(((6-cyclopropyl-8-(3-methyl-2,4-dioxoimidazolidin-1-yl)imidazo[1,2-a]pyridin-2-yl)methyl)amino)-5-(trifluoromethyl)pyrimidin-2-yl)-2-(4-methylpyrimidin-2-yl)cyclopropane-1-carboxamide] | < 400 | < 1
10 | O=C(Nc1cc(NCc2cn3cc(C4CC4)cc(C4(O)COC4)c3n2)ccn1)[C@H]1C[C@@H]1c1cccc(Cl)c1 (racemic) [Example I-242, rac-(1S*,2S*)-2-(3-chlorophenyl)-N-(4-(((6-cyclopropyl-8-(3-hydroxyoxetan-3-yl)imidazo[1,2-a]pyridin-2-yl)methyl)amino)pyridin-2-yl)cyclopropane-1-carboxamide] | 1500 to 10000 | < 1
11 | Cc1ccnc([C@H]2C[C@@H]2C(=O)Nc2ncnc(NCc3cn4cc(C5CC5)cc(N5CC(=O)N(C)C5=O)c4n3)c2F)n1 (racemic) [Example 412, rac-(1S*,2S*)-N-(6-(((6-cyclopropyl-8-(3-methyl-2,4-dioxoimidazolidin-1-yl)imidazo[1,2-a]pyridin-2-yl)methyl)amino)-5-fluoropyrimidin-4-yl)-2-(4-methylpyrimidin-2-yl)cyclopropane-1-carboxamide] | 400 to 1500 | 1 to 10
12 | CN1C(=O)CN(c2cc(C3CC3)cn3cc(CNc4cc(NC(=O)[C@H]5C[C@@H]5c5cc(Cl)ccc5C#N)ncn4)nc23)C1=O (racemic) [Example I-170, rac-(1S*,2S*)-2-(5-chloro-2-cyanophenyl)-N-(6-(((6-cyclopropyl-8-(3-methyl-2,4-dioxoimidazolidin-1-yl)imidazo[1,2-a]pyridin-2-yl)methyl)amino)pyrimidin-4-yl)cyclopropane-1-carboxamide] | 1500 to 10000 | < 1
13 | O=C(Nc1cc(NCc2cn3cc(C4CC4)cc(N4CCN5CCCC5C4)c3n2)ncn1)[C@H]1C[C@@H]1c1cccc(Cl)c1 (stereo partly drawn) [Example I-200, (1S,2S)-2-(3-chlorophenyl)-N-(6-(((6-cyclopropyl-8-(hexahydropyrrolo[1,2-a]pyrazin-2(1H)-yl)imidazo[1,2-a]pyridin-2-yl)methyl)amino)pyrimidin-4-yl)cyclopropane-1-carboxamide] | 400 to 1500 | < 1

Now from value to molecule:

Row | IC90 [1] [nM] | EC50 [2] [nM] | SMILES
14 | < 400 | < 1 | Cc1ccnc([C@H]2C[C@@H]2C(=O)Nc2cc(NCc3cn4cc(C5CC5)cc(N5CC(=O)N(C)C5=O)c4n3)nc(C)n2)n1 (racemic) [Example 366, rac-(1S*,2S*)-N-(6-(((6-cyclopropyl-8-(3-methyl-2,4-dioxoimidazolidin-1-yl)imidazo[1,2-a]pyridin-2-yl)methyl)amino)-2-methylpyrimidin-4-yl)-2-(4-methylpyrimidin-2-yl)cyclopropane-1-carboxamide]
15 | 400 to 1500 | < 1 | CN1C(=O)CN(c2cc(C3CC3)cn3cc(COc4cnnc(NC(=O)[C@H]5C[C@@H]5c5cccc(Cl)c5)c4)nc23)C1=O [Example 557, (1S,2S)-2-(3-chlorophenyl)-N-(5-((6-cyclopropyl-8-(3-methyl-2,4-dioxoimidazolidin-1-yl)imidazo[1,2-a]pyridin-2-yl)methoxy)pyridazin-3-yl)cyclopropane-1-carboxamide]
16 | 400 to 1500 | < 1 | Cc1ccnc([C@H]2C[C@@H]2C(=O)Nc2cc(NCc3cn4cc(C5CC5)cc(N5CC(=O)NC5=O)c4n3)ncn2)n1 (racemic) [Example 392, rac-(1S*,2S*)-N-(6-(((6-cyclopropyl-8-(2,4-dioxoimidazolidin-1-yl)imidazo[1,2-a]pyridin-2-yl)methyl)amino)pyrimidin-4-yl)-2-(4-methylpyrimidin-2-yl)cyclopropane-1-carboxamide]
17 | < 400 | < 1 | Cc1ccnc([C@H]2C[C@@H]2C(=O)Nc2cc(OCc3cn4cc(C5CC5)cc(N5CC(=O)N(C)C5=O)c4n3)cnn2)n1 [Example 558, (1S,2S)-N-(5-((6-cyclopropyl-8-(3-methyl-2,4-dioxoimidazolidin-1-yl)imidazo[1,2-a]pyridin-2-yl)methoxy)pyridazin-3-yl)-2-(4-methylpyrimidin-2-yl)cyclopropane-1-carboxamide]
18 | 10000 to 48000 | 1 to 10 | CC(C)(O)c1cc(C2CC2)cn2cc(CNc3cc(NC(=O)[C@H]4C[C@@H]4c4cccc(Cl)c4)ncn3)nc12 [Example I-159, (1S,2S)-2-(3-chlorophenyl)-N-(6-(((6-cyclopropyl-8-(2-hydroxypropan-2-yl)imidazo[1,2-a]pyridin-2-yl)methyl)amino)pyrimidin-4-yl)cyclopropane-1-carboxamide]
19 | 10000 to 48000 | 1 to 10 | O=C(Nc1cncc(NCc2cn3cc(C4CC4)ccc3n2)c1)[C@H]1C[C@@H]1c1cccc(Cl)c1 (racemic) [Example 574, rac-(1S*,2S*)-2-(3-chlorophenyl)-N-(5-(((6-cyclopropylimidazo[1,2-a]pyridin-2-yl)methyl)amino)pyridin-3-yl)cyclopropane-1-carboxamide]
20 | 400 to 1500 | < 1 | Cc1ccnc([C@H]2C[C@@H]2C(=O)Nc2cc(OC(C)c3cn4cc(C5CC5)cc(N5CC(=O)N(C)C5=O)c4n3)ncn2)n1 (stereo partly drawn) [Example 549, (1S,2S)—N-(6-(1-(6-cyclopropyl-8-(3-methyl-2,4-dioxoimidazolidin-1-yl)imidazo[1,2-a]pyridin-2-yl)ethoxy)pyrimidin-4-yl)-2-(4-methylpyrimidin-2-yl)cyclopropane-1-carboxamide]
